Key:
M1 mAChR [1] = molecular target: T1, M1 mAChR (Homo sapiens, UniProt P11229); experiment: Intracellular Ca2+ mobilization (Fluo-4 NW) in cells stably transfected with M1 mAChR; type: cell-based; design: expressed in transfected cells; conditions: for Kd: read-out: Effects on M1 mAChR: antagonist, Kd; for activity at 100 µM: remaining carbachol-induced effect, read-out: Antagonist at 100 μM on M1 mAChR inhibiting carbachol-induced effects from 100% to; for M1 agonist at 100 μM vs. carbachol (full muscarinic agonist, 100%): mobilization of intracellular Ca ions
T1 sequence (P11229 1-460): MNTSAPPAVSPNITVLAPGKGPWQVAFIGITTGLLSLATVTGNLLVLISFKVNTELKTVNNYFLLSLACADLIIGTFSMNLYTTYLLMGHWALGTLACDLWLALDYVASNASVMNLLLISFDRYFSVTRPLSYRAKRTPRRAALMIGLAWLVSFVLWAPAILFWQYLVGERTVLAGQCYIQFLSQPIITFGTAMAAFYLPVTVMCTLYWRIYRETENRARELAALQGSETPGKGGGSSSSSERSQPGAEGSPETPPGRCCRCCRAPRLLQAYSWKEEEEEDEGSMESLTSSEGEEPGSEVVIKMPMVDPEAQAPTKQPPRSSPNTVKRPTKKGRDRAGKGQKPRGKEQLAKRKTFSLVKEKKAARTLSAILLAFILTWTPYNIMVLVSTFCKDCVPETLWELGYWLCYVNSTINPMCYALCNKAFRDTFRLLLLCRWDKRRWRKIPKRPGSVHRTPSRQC
Source text: On the day of experiment, cells were fully confluent.
To evaluate selectivity for a subtype of mAChR, in particular the M1 mAChR vs. M3 and MS mAChR, the assays were calibrated using ligands that have a combined activity, e.g. M1 agonistic and M3 antagonistic or M1 agonistic and MS antagonistic profiles, respectively. This can eliminate effects due to different receptor reserves in cell-based assays.

rats = experiment: Passive avoidance, MK-801-induced impairment in rats; type: in vivo, rat; conditions: sc, retention 24 h later
Source text: (§1) Trihexyphenidyl is a selective M1 muscarinic antagonist that crosses the blood brain barrier and induces memory and learning impairments (Bymaster et al., J Pharmacol Exp. Ther. 267: 16-24, 1993; Roldan et al., Neurosci. Lett. 230: 93-96, 1997; Kimura et al., Brain Res. 834: 6-12, 1999). […] Naive Wistar rats were used in the experiments below. The passive avoidance (PA) task consists of a training (acquisition) phase and a retention phase. In the training procedure each rat was individually placed in the small illuminated compartment and after 60 s. of familiarization/adaptation, the door to the large compartment was opened and the latency to enter was measured (Initial Latency) Immediately following entry into the dark compartment, the door was closed and inescapable foot shock (0.6 mA for 3 s) was delivered through the grid floor. […] After the acquisition trial the rat was returned to its home cage. Retention of the passive avoidance task was measured 24 h later, by again placing the rat in the light compartment and after a 60 s adaptation interval, the door was opened and the latency to re-enter the dark compartment was measured. […] Two separate experiments were conducted. […] In both experiments the rats were divided into 2 groups. One main group was treated with trihexyphenidyl (5 mg/kg, s.c) and the second main group was treated with vehicle (DDW-1 ml/kg, s.c.), 30 min before the shock.
MK-801 is an NMDA antagonist that induces cognitive behavioral impairments in rodents. […] In the first experiment (dose-finding study of MK-801) rats were divided into 4 groups. Three groups (N=27) were treated with MK-801 (50, 80 or 100 μg/kg, s.c) and the fourth group (N=10) was treated with vehicle (saline-1 ml/kg, s.c.), 30 min before the shock. […] One group (N=80) was treated with MK-801 (80 μg/kg, s.c) and the second group (N=59) was treated with the vehicle (saline-1 ml/kg, s.c.).

PC12M1 cells = experiment: Mitochondrial apoptosis pathway, Bax and Bcl-2 immunoreactivity in PC12M1 cells
Procedure: These cells were partially differentiated (2-3 days), as observed under microscope. […] The pellet (rich mitochondrial fraction) was re-suspended with 200 μl Ripa buffer and lysed by rapid passage through a syringe needle (23G) for five to six times. The lysate was then used for further evaluation.
Bands were probed using the Rabbit Bax antibody (1:1000, Cell signaling, Cat. No. 2772) and Rabbit Bcl-2 antibody (1:1000, Cell signaling, Cat. No. 2870) followed by anti rabbit IgG (H&L) HRP (1:5,000, Jackson Immuno Research, 111-035-144).

M1 mAChR [2] = molecular target: T1, M1 mAChR; experiment: αAPPs secretion in CHO cells double transfected with human APP695 and human M1 mAChR; type: cell-based; conditions: doubly-transfected CHO cells; AF710B at 0.01 μM, AF710 at 0.1 μM, AF710A at 1 μM
Procedure: α-APPs Secretion studies following incubation with the tested compounds were performed as described in Haring, et al. J. Neurochem., 1998, 71:2094-103. […] A day later, cells were washed twice with serum free media, and treated with the test compound at various concentrations ranging from 0.1 nM to 100 μM. […] After 1 hour the conditioned medium was collected to cold Eppendorf tubes, which included a protease inhibitor cocktail (0.1 mM phenylmethylsulphonyl fluoride (PMSF); 5 μg/ml leupeptin; 5 μg/ml pepstatin and 5 units/ml aprotinin) for determining αAPPs release. The protein content of each sample was concentrated using Centricon tubes (Amicon, Beverly, Mass.). […] CHO cells double transfected with human APP695 and M1 mAChR APPs bands were probed using anti-amyloid beta protein (1:1000, monoclonal 6E10 antibody, MAB1560, Chemicon) and peroxidase-linked rabbit anti mouse IgG (1:5,000; Jackson Immuno Research, PA). PC12 cells stably transfected with M1 mAChR APPs bands were probed using the anti-Alzheimer precursor protein A4 (1:4,000; monoclonal 22C11 antibody, Boehringer Mannheim) and the peroxidase-linked rabbit anti mouse IgG (1:20,000; Jackson Immuno Research, PA). Following extensive washout, the membranes were treated with Western Lightning Chemiluminescence Reagent Plus (PerkinElmer Life Sciences, MA) followed by exposure to SuperRX film (Fuji Medical X-ray film, Tokyo, Japan). Quantitative determination of the total APPs bands was performed by Scion Image program (NIH, Bethesda, USA). Samples of control and CCh were assayed in parallel and thus enabled compilation of data from separate experiments.

Wistar rats = experiment: Passive avoidance, trihexyphenidyl-induced memory impairment in rats; type: in vivo, rat; conditions: NE-100 1 mg/kg alone
Source text: as §1
In a further extension of these studies, retention of the passive avoidance task was measured 72 h later, by again placing the rat in the light compartment and after a 60 s adaptation interval, the door was opened and the latency to re-enter the dark compartment was measured. A cutoff point of 600 s was used for retention latency. […] Rats were divided into 2 groups. One group (N=30) was treated with trihexyphenidyl (5 mg/kg, s.c) and the second group (N=29) was treated with vehicle (DDW-1 ml/kg, s.c.), 30 min before the shock.

CC1OC2(CCN(C)CC2)CN1C(=O)CCc1c[nH]c2ccccc12 (single isomer, unassigned) [AF711B]
Kd (M1 mAChR [1]): 42 µM

C[C@]12N[C@H](Cc3ccccc31)c1ccccc12 [MK-801, reference compound]
retention performance, dose-finding (rats; 50 μg/kg): ineffective
retention performance, dose-finding (rats; 80 and 100 μg/kg): impaired retention performance

CC1OC2(CCN(C)CC2)CN1S(=O)(=O)c1ccc(F)cc1 (centres unmarked) [AF715, 3-(4-fluorobenzenesulfonyl)-2,8-dimethyl-1-oxa-3,8-diazaspiro[4.5]-decane]
Kd (M1 mAChR [1]): 2.5 µM

CC1SC2(CCN(C)CC2)CN1C(=O)CCCc1c[nH]c2ccccc12 (centres unmarked) [AF725]
activity at 100 µM (M1 mAChR [1]): < 50%

C[N+](C)(C)CCOC(N)=O [carbachol, reference compound]
Aβ 25-35 induced neurotoxicity expressed as Bax/Bcl2 (PC12M1 cells; PC12M1 cells, 1 μM): 29%±11

C[C@H]1SC2(CCN(C)CC2)CN1C(=O)CCc1c[nH]c2ccccc12 (single isomer, unassigned) [AF710A]
Kd (M1 mAChR [1]): 31 µM
maximal αAPPs secretion in comparison to untreated control cells (M1 mAChR [2]): 125%

CC1SC2(CCN(C)CC2)CN1S(=O)(=O)c1ccc(F)cc1 (centres unmarked) [AF716, 3-(4-fluorobenzenesulfonyl)-2,8-dimethyl-1-thia-3,8-diazaspiro[4.5]-decane]
Kd (M1 mAChR [1]): 7.7 µM

CC1SC2(CCN(C)CC2)CN1C(=O)/C=C/c1c[nH]c2ccccc12 (centres unmarked) [AF727, (E)-1-(2,8-dimethyl-1-thia-3,8-diaza-spiro[4.5]dec-3-yl)-3-(1H-indol-3-yl)-propenone]
Kd (M1 mAChR [1]): 8.7 µM

CC1OC2(CCN(C)CC2)C2C1N2C(=O)CCc1c[nH]c2ccccc12 (centres unmarked) [AF718C, 1′,4-dimethyl-6-(3-indolpropionyl)-spiro-(3-oxa-6-aza-bicyclo[3.1.0]-hexane-2,4′-piperidine)]
M1 agonist at 100 μM vs. carbachol (full muscarinic agonist, 100%) (M1 mAChR [1]): 43%

CC1OC2(CCN(C)CC2)CC1NC(=O)CCc1c[nH]c2ccccc12 (single isomer, unassigned) [AF730 II]
M1 agonist at 100 μM vs. carbachol (full muscarinic agonist, 100%) (M1 mAChR [1]): 36%

CC1OC2(CCN(C)CC2)CC1NC(=O)CCc1c[nH]c2ccccc12 (single isomer, unassigned) [AF730, N-(2,8-dimethyl-1-oxa-8-aza-spiro[4.5]dec-3-yl)-3-(1H-indol-3-yl)-propionamide]
M1 agonist at 100 μM vs. carbachol (full muscarinic agonist, 100%) (M1 mAChR [1]): 40%

CCCN(CCC)CCc1ccc(OC)c(OCCc2ccccc2)c1 [NE-100, reference compound]
inducing deficits in the PA task, alone (Wistar rats): not significantly effective
effect of sigma-1 antagonist on AF710B-mediated decrease of Bax elevation (PC12M1 cells; NGF deprivation): blocked these AF710B-mediated effects

CC1SC2(CCN(C)CC2)CN1C(=O)c1cc(C(C)(C)C)c(O)c(C(C)(C)C)c1 (centres unmarked) [AF723, (3,5-di-tert-butyl-4-hydroxy-phenyl)-(2,8-dimethyl-1-thia-3,8-diaza-spiro[4.5]dec-3-yl)-methanone]
activity at 100 µM (M1 mAChR [1]): < 50%

CCCC(CCC)C(=O)N1CC2(CCN(C)CC2)OC1C (centres unmarked) [AF712, 1-(2,8-dimethyl-1-oxa-3,8-diaza-spiro[4.5]dec-3-yl)-2-propyl-pentan-1-one]
Kd (M1 mAChR [1]): 22.6 µM

CC1CN(S(=O)(=O)c2ccc(F)cc2)C2(CCN(C)CC2)O1 (centres unmarked) [AF714, 4-(4-fluoro-benzenesulfonyl)-2,8-dimethyl-1-oxa-4,8-diaza-spiro[4.5]-decane]
Kd (M1 mAChR [1]): 9.7 µM

CC1OC2(CCN(C)CC2)CN1C(=O)CCc1c[nH]c2ccccc12 (single isomer, unassigned) [AF711A]
M1 agonist at 100 μM vs. carbachol (full muscarinic agonist, 100%) (M1 mAChR [1]): 45%

CC1OC2(CCN(C)CC2)C2C1N2S(=O)(=O)c1ccc(F)cc1 (centres unmarked) [AF721, 1′,4-dimethyl-6-[3-(4-fluorobenzenesulfonyl)]-spiro-(3-oxa-6-aza-bicyclo[3.1.0]hexane-2,4′-piperidine)]
M1 agonist at 100 μM vs. carbachol (full muscarinic agonist, 100%) (M1 mAChR [1]): 13%

CC1SC2(CCN(C)CC2)CN1C(=O)Cc1c[nH]c2ccccc12 (centres unmarked) [AF726]
Kd (M1 mAChR [1]): 84.7 µM

CCCC(CCC)C(=O)N1CC(C)OC12CCN(C)CC2 (centres unmarked) [AF713, 1-(2,8-dimethyl-1-oxa-4,8-diaza-spiro[4.5]dec-4-yl)-2-propyl-pentan-1-one]
Kd (M1 mAChR [1]): 113 µM

CC1CN(C(=O)CCc2c[nH]c3ccccc23)C2(CCN(C)CC2)O1 (centres unmarked) [AF706, 1-(2,8-dimethyl-1-oxa-4,8-diazaspiro[4.5]dec-4-yl)-3-(1H-indol-3-yl)-propan-1-one]
Kd (M1 mAChR [1]): 39.7 µM

CCCC(CCC)C(=O)N1CC2(CCN(C)CC2)SC1C (centres unmarked) [AF717, 1-(2,8-dimethyl-1-thia-3,8-diazaspiro[4.5]dec-3-yl)-2-propylpentan-1-one]
activity at 100 µM (M1 mAChR [1]): < 25%

CCC(=O)N1CC2(CCN(C)CC2)SC1C (centres unmarked) [AF724, 1-(2,8-dimethyl-1-thia-3,8-diaza-spiro[4.5]dec-3-yl)-propan-1-one]
activity at 100 µM (M1 mAChR [1]): < 50%

CC1OC2(CCN(C)CC2)C/C1=N\OC(=O)CCc1c[nH]c2ccccc12 (centres unmarked) [AF733, (3E)-2,8-dimethyl-1-oxa-8-azaspiro[4.5]decan-3-one-O—[3-(1H-indol-3-yl)propanoyl]oxime]
M1 agonist at 100 μM vs. carbachol (full muscarinic agonist, 100%) (M1 mAChR [1]): 90%
